Source: US20020077352A1, “N-methyl-D-aspartate receptor antagonists” (priority 2000, published 2002)
Where two headings read alike, the source gives them in different places.

Columns and labels:
NMDARs = experiment: whole-cell patch clamp, NMDA-evoked currents in cultured mouse cortical neurons; type: cell-based
Procedure: NMDA (200 μM) alone, NMDA plus aqueous Salvia miltiorrhiza extract (100 μl in 10 ml Hanks solution) and NMDA plus 20 nM tanshinone IIA were applied for about 3 seconds (black bars) in the continuous presence of glycine (10 μM) and absence of Mg^2+.
The ordinate indicates the percent steady-state block of currents evoked by 200 μM NMDA plus 10 μM glycine in the absence of Mg^2+.
NMDA (100 μM) or increasing concentrations of NMDA (100 μM-1600 μM) plus tanshinone IIA (20 nM) were applied for about 3 seconds (indicated by the black bars) in the continuous presence of glycine (10 μM) and absence of Mg^2+,
I/V curves were constructed by subtracting the response in the presence of NMDA (200 μM) plus tanshinone from the control response during the application of NMDA alone for 2 seconds at membrane holding potentials from −60 mV to +60 mV. Data from 2 to 5 sweeps were averaged for each trace.
(§1) The whole-cell patch clamp technique was used in mouse cortical neuronal cultures in order to screen for NMDAR antagonists in Danshen, the root of Salvia milthiorriza Bunge. […] Tanshinones are plant-derived diterpenoid quinones.
The concentration dependence of the steady-state block of NMDA-induced currents was determined in order to obtain the dose/response curve of the NMDAR antagonist action of the tanshinones (FIG. 2). The data were fit according to a logistic equation and the concentration at which 50% of the NMDA-evoked response was blocked (IC50) was calculated from the equation.
Concentration-response curves were obtained in the presence of a saturating dose of tanshinone and increasing amounts of NMDA in cultured mouse cortical neurons (FIG. 3a).
The voltage-dependence of the inhibitory effects of the tanshinones was assessed by constructing current/voltage (I/V) plots in the presence or absence of the drugs (FIG. 3b).

[1] = biological target: T1, recombinant NMDARs composed of NR1 and NR2D subunits (Homo sapiens, UniProt O15399+Q05586); experiment: NMDA-induced current in transiently transfected HEK293 cells expressing recombinant NR1/NR2D NMDARs; type: cell-based; conditions: for block of the NMDA-induced current, NR1/NR2D: 100 nM, co-application of NMDA and glycine, absence of Mg2+
T1 construct: expressed in transfected cells; host or cells: HEK293, transiently transfected
Text: (§2) This example also compared the blocking efficacy of the tanshinones in transiently transfected human embryonic kidney (HEK) 293 cells expressing recombinant NMDARs containing either the NR1/NR2B or NR1/NR2D subunit combinations.

[2] = system: central benzodiazepine receptors; conditions: cited from earlier work
GABAA receptors = experiment: whole-cell patch clamp, currents activated by GABA in cultured cortical neurons; type: cell-based, mouse; conditions: GABA 20 μM; n=3
Text: as §1
(§3) The present example examined whether tanshinones inhibited currents of AMPA and GABAA receptors evoked by AMPA or GABA, respectively.

AMPA receptors = experiment: whole-cell patch clamp, currents activated by AMPA in mouse cultured cortical neurons; type: cell-based; conditions: AMPA 10 μM; 100 nM compound
Text: as §1, §3

[3] = biological target: T2, recombinant NMDARs composed of the NR1 and NR2B subunits (Homo sapiens, UniProt Q05586+Q13224); experiment: NMDA-induced current in transiently transfected HEK293 cells expressing recombinant NR1/NR2B NMDARs; type: cell-based
T2 construct: expressed in transfected cells; host or cells: HEK293, transiently transfected
Text: as §2

[4] = 200 μM NMDA plus 10 μM glycine, absence of Mg2+; 95% confidence interval given in brackets; read-out: IC50, steady-state block of NMDA-induced currents
[5] = I/V plots, holding potentials −60 mV to +60 mV
[6] = purified tanshinones, patch-clamp assay (20 nM, FIG. 1d)

T1 sequence (O15399 28-1336, other chains not shown): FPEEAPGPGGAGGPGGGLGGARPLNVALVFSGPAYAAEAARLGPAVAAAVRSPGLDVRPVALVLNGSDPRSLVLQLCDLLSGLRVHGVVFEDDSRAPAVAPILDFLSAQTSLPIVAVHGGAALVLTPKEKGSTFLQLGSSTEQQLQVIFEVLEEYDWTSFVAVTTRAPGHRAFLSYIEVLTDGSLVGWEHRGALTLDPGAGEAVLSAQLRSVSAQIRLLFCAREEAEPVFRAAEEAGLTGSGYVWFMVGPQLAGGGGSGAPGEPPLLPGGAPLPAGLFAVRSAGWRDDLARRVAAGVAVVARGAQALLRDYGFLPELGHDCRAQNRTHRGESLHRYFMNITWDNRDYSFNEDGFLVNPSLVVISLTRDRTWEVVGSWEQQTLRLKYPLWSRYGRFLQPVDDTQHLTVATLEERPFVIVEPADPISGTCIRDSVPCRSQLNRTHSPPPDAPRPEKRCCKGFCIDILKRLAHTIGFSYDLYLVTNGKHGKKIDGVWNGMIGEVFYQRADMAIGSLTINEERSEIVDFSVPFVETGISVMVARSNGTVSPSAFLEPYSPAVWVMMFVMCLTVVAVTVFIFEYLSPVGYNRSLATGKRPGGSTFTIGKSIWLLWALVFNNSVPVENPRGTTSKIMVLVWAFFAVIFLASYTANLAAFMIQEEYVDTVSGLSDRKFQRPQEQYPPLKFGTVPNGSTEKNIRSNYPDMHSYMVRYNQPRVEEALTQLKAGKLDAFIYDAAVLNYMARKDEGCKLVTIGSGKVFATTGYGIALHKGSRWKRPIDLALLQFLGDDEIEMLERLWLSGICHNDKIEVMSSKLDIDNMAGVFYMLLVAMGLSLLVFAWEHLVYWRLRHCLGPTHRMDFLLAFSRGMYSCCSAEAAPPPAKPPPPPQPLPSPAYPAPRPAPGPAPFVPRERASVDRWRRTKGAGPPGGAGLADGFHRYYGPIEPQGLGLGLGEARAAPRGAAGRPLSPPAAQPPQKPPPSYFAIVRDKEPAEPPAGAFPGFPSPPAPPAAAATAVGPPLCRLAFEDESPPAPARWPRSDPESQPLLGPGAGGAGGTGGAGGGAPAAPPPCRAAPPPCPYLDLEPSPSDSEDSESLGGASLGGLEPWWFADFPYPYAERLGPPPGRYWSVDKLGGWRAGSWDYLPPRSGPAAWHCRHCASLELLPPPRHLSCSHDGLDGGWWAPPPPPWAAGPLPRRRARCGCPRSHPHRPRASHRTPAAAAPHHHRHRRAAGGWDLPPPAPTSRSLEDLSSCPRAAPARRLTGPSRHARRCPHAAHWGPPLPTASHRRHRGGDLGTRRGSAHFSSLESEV
T2 sequence (Q13224 27-1484, other chains not shown): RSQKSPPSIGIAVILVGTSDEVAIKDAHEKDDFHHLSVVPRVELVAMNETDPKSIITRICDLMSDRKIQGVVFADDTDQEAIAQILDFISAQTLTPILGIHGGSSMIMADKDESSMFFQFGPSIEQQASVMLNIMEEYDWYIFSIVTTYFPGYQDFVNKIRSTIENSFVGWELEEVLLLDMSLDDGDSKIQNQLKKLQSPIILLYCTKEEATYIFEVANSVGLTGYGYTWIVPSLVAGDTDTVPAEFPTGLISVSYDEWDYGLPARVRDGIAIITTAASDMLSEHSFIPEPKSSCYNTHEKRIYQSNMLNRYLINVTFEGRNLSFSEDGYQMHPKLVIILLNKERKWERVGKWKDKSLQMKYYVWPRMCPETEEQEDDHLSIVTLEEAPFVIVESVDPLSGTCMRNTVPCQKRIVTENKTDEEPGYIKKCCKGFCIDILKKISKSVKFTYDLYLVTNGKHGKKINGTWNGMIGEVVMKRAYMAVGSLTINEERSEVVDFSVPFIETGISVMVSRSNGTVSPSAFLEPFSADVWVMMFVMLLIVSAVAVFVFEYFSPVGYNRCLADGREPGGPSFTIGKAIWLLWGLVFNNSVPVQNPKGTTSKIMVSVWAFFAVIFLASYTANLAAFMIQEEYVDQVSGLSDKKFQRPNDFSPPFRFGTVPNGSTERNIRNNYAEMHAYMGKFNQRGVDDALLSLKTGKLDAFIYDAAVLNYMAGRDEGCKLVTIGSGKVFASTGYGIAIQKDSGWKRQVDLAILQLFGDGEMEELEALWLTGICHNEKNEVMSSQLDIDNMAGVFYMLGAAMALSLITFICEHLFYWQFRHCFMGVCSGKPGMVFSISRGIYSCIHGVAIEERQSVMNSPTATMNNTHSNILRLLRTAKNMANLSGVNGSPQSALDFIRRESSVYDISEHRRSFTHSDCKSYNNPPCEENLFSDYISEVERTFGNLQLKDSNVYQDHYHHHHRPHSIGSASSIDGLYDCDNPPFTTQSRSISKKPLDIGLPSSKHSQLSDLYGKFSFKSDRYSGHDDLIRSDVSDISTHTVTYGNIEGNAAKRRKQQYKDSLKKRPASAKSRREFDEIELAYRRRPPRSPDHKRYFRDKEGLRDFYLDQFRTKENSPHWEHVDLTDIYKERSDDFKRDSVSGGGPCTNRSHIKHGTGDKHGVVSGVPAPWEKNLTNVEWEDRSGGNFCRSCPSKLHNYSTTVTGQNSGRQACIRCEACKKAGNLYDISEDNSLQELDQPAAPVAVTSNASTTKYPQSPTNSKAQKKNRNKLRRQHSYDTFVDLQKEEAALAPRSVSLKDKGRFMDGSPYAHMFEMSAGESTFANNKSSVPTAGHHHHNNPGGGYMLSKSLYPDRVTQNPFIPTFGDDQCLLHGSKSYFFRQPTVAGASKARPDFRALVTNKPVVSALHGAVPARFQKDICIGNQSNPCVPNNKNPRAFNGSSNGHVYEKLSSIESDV

Structure (SMILES) | block of the NMDA-induced current, NR1/NR2D [1] | IC50 (NMDARs; [4]) | voltage-dependence of inhibition, NR2D containing receptors ([1]; greatly reduced efficacy at positive potentials) | voltage-dependence of inhibition, NR2B containing receptors [3] | IC50 (NMDARs; read-out: IC50, steady-state block of NMDA-induced currents; 200 μM NMDA plus 10 μM glycine, absence of Mg2+; 95% confidence interval given in brackets) | activity at central benzodiazepine receptors [2] | voltage-dependence of inhibition of NMDA-induced whole-cell currents (NMDARs; [5]) | inhibition of the NMDA-induced currents (NMDARs; [6]) | mode of inhibition with respect to agonist NMDA and co-agonist glycine (NMDARs; fixed saturating dose of tanshinone (20 nM), increasing NMDA 100-1600 μM) | block of currents activated by GABA (GABAA receptors) | inhibition of currents activated by AMPA (AMPA receptors)
C[C@H]1COC2=C1C(=O)C(=O)c1c2ccc2c1CCCC2(C)C [cryptotanshinone] | 10±1% | – | – | – | 1.7 nM | – | – | – | – | – | –
CC(C)C1=Cc2ccc3c(c2C(=O)C1=O)CCCC3(C)C [miltirone] | 11±2% | 2.1 nM | – | – | – | partial agonists | voltage-independent | strong, but readily reversible inhibition | – | – | –
Cc1coc2c1C(=O)C(=O)c1c-2ccc2c(C)cccc12 [tanshinone I] | 4±1% | 3.7 nM | – | – | – | – | voltage-independent | strong, but readily reversible inhibition | – | – | –

Further lines, with some results ahead:

block of the NMDA-induced current, NR1/NR2D [1] | IC50 (NMDARs; [4]) | voltage-dependence of inhibition, NR2D containing receptors ([1]; greatly reduced efficacy at positive potentials) | voltage-dependence of inhibition, NR2B containing receptors [3] | Structure (SMILES) | IC50 (NMDARs; read-out: IC50, steady-state block of NMDA-induced currents; 200 μM NMDA plus 10 μM glycine, absence of Mg2+; 95% confidence interval given in brackets) | activity at central benzodiazepine receptors [2] | voltage-dependence of inhibition of NMDA-induced whole-cell currents (NMDARs; [5]) | inhibition of the NMDA-induced currents (NMDARs; [6]) | mode of inhibition with respect to agonist NMDA and co-agonist glycine (NMDARs; fixed saturating dose of tanshinone (20 nM), increasing NMDA 100-1600 μM) | block of currents activated by GABA (GABAA receptors) | inhibition of currents activated by AMPA (AMPA receptors)
61±11% | 3.4 nM | voltage-dependent | voltage-independent | Cc1coc2c1C(=O)C(=O)c1c-2ccc2c1CCCC2(C)C [tanshinone IIA] | – | – | voltage-independent | strong, but readily reversible inhibition | non-competitive inhibition | 10±3% | 6±3%
52±11% | 1.1 nM | – | – | Cc1coc2c1C(=O)C(=O)c1c-2ccc2c1CCCC2(C)CO (stereo not drawn) [tanshinone IIB] | – | – | voltage-independent | strong, but readily reversible inhibition | – | – | –
